Columns and labels:
Design in all cases: scale not given here
[1] = system: CASOB Sicklepod; assay: Postemergence herbicidal evaluation, CASOB; assay type: in vivo, Cassia obtusifolia, L.; conditions: postemergence spray, rated about two-three weeks after treatment
How it was run: (§1)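 For this test, compound in an 80/20 acetone/water vehicle with 1.0% seed oil was sprayed over two-week-old seedlings at about 0.006 to 0.400 kg per hectare. Injury was assessed visually two to three weeks on.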

[2] = system: ABUTH Velvetleaf; assay: Preemergence herbicidal evaluation, ABUTH; assay type: in vivo, Abutilon theophrasti, Medic.; conditions: preemergence
How it was run: (§2)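 Seeds mixed with potting soil were planted on about one inch of soil in cups, then sprayed with the test compound in aqueous acetone at roughly 0.013 to 0.800 kg per hectare. Plants were kept under standard greenhouse care and injury was rated four to five weeks after treatment.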

[3] = system: IPOHE Morningglory, Ivyleaf; assay: Postemergence herbicidal evaluation, IPOHE; assay type: in vivo, Ipomoea hederacea, (L.) Jacq.; conditions: postemergence spray, rated about two-three weeks after treatment
How it was run: as §1

[4] = system: SETVI Foxtail, Green; assay: Postemergence herbicidal evaluation, SETVI; assay type: in vivo, Setaria viridis, (L.) Beau; conditions: postemergence spray, rated about two-three weeks after treatment
How it was run: as §1

[5] = system: ZEAMX Corn, Field; assay: Postemergence herbicidal evaluation, ZEAMX; assay type: in vivo, Zea mays, L. (Sammel-Bezeichnung); conditions: postemergence spray, rated about two-three weeks after treatment
How it was run: as §1

[6] = system: CHEAL Lambsquarters, Common; assay: Postemergence herbicidal evaluation, CHEAL; assay type: in vivo, Chenopodium album, L.; conditions: postemergence spray, rated about two-three weeks after treatment
How it was run: as §1

[7] = system: AMBEL Ragweed, Common; assay: Postemergence herbicidal evaluation, AMBEL; assay type: in vivo, Ambrosia artemisifolia, L.; conditions: postemergence spray, rated about two-three weeks after treatment
How it was run: as §1

[8] = system: GALAP Galium; assay: Postemergence herbicidal evaluation, GALAP; assay type: in vivo, Galium aparine; conditions: postemergence spray, rated about two-three weeks after treatment
How it was run: as §1

[9] = system: AMBEL Ragweed, Common; assay: Preemergence herbicidal evaluation, AMBEL; assay type: in vivo, Ambrosia artemisifolia, L.; conditions: preemergence
How it was run: as §2

[10] = system: ECHOG Barnyardgrass; assay: Preemergence herbicidal evaluation, ECHOG; assay type: in vivo, Echinochloa crus-galli, (L.) Beau; conditions: preemergence
How it was run: as §2

[11] = system: ABUTH Velvetleaf; assay: Postemergence herbicidal evaluation, ABUTH; assay type: in vivo, Abutilon theophrasti, Medic.; conditions: postemergence spray, rated about two-three weeks after treatment
How it was run: as §1

[12] = system: CASOB Sicklepod; assay: Preemergence herbicidal evaluation, CASOB; assay type: in vivo, Cassia obtusifolia, L.; conditions: preemergence
How it was run: as §2

[13] = system: ORYSAT Rice, Tebonnet; assay: Postemergence herbicidal evaluation, ORYSAT; assay type: in vivo, Oryza sativa, (L.); conditions: postemergence spray, rated about two-three weeks after treatment
How it was run: as §1

[14] = system: SETVI Foxtail, Green; assay: Preemergence herbicidal evaluation, SETVI; assay type: in vivo, Setaria viridis, (L.) Beau; conditions: preemergence
How it was run: as §2

[15] = system: CHEAL Lambsquarters, Common; assay: Preemergence herbicidal evaluation, CHEAL; assay type: in vivo, Chenopodium album, L.; conditions: preemergence
How it was run: as §2

[16] = system: ORYSAT Rice, Tebonnet; assay: Preemergence herbicidal evaluation, ORYSAT; assay type: in vivo, Oryza sativa, (L.); conditions: preemergence
How it was run: as §2

[17] = system: ECHOG Barnyardgrass; assay: Postemergence herbicidal evaluation, ECHOG; assay type: in vivo, Echinochloa crus-galli, (L.) Beau; conditions: postemergence spray, rated about two-three weeks after treatment
How it was run: as §1

[18] = system: GLXMAW Soybean, Williams; assay: Postemergence herbicidal evaluation, GLXMAW; assay type: in vivo, Glycine max, (L.) Merr. cv Williams; conditions: postemergence spray, rated about two-three weeks after treatment
How it was run: as §1

[19] = system: GALAP Galium; assay: Preemergence herbicidal evaluation, GALAP; assay type: in vivo, Galium aparine; conditions: preemergence
How it was run: as §2

[20] = system: GLXMAW Soybean, Williams; assay: Preemergence herbicidal evaluation, GLXMAW; assay type: in vivo, Glycine max, (L.) Merr. cv Williams; conditions: preemergence
How it was run: as §2

[21] = system: ZEAMX Corn, Field; assay: Preemergence herbicidal evaluation, ZEAMX; assay type: in vivo, Zea mays, L. (Sammel-Bezeichnung); conditions: preemergence
How it was run: as §2

[22] = system: TRZAWR Wheat, Winter, cv Riband; assay: Postemergence herbicidal evaluation, TRZAWR; assay type: in vivo, Triticum aestivum; conditions: postemergence spray, rated about two-three weeks after treatment
How it was run: as §1

[23] = system: IPOHE Morningglory, Ivyleaf; assay: Preemergence herbicidal evaluation, IPOHE; assay type: in vivo, Ipomoea hederacea, (L.) Jacq.; conditions: preemergence
How it was run: as §2

[24] = system: TRZAWR Wheat, Winter, cv Riband; assay: Preemergence herbicidal evaluation, TRZAWR; assay type: in vivo, Triticum aestivum; conditions: preemergence
How it was run: as §2

COC(=O)COc1ccc(-n2nnc3cc(F)c(-n4c(=O)cc(C(F)(F)F)n(C)c4=O)cc32)c(C)c1 [Example 39]
5.5: Postemergence herbicidal rating TRZAWR ([22]; 0.062 kg/ha)
2.0: Postemergence herbicidal rating CASOB ([1]; 0.062 kg/ha) | Postemergence herbicidal rating SETVI ([4]; 0.062 kg/ha) | Postemergence herbicidal rating CHEAL ([6]; 0.016 kg/ha) | Postemergence herbicidal rating CHEAL ([6]; 0.032 kg/ha)
0.0: Postemergence herbicidal rating CASOB ([1]; 0.008 kg/ha) | Postemergence herbicidal rating CASOB ([1]; 0.016 kg/ha) | Postemergence herbicidal rating CASOB ([1]; 0.032 kg/ha) | ABUTH herbicidal rating ([2]; rate 0.016 kg/ha) | Postemergence herbicidal rating SETVI ([4]; 0.008 kg/ha) | Postemergence herbicidal rating SETVI ([4]; 0.016 kg/ha) | Postemergence herbicidal rating SETVI ([4]; 0.032 kg/ha) | Postemergence herbicidal rating CHEAL ([6]; 0.008 kg/ha) | Postemergence herbicidal rating AMBEL ([7]; 0.008 kg/ha) | Postemergence herbicidal rating AMBEL ([7]; 0.016 kg/ha) | Postemergence herbicidal rating GALAP ([8]; 0.008 kg/ha) | Postemergence herbicidal rating GALAP ([8]; 0.016 kg/ha) | AMBEL herbicidal rating ([9]; rate 0.016 kg/ha) | AMBEL herbicidal rating ([9]; rate 0.032 kg/ha) | AMBEL herbicidal rating ([9]; rate 0.062 kg/ha) | AMBEL herbicidal rating ([9]; rate 0.125 kg/ha) | ECHCG herbicidal rating ([10]; rate 0.016 kg/ha) | ECHCG herbicidal rating ([10]; rate 0.032 kg/ha) | ECHCG herbicidal rating ([10]; rate 0.062 kg/ha) | ECHCG herbicidal rating ([10]; rate 0.125 kg/ha) | CASOB herbicidal rating ([12]; rate 0.016 kg/ha) | CASOB herbicidal rating ([12]; rate 0.032 kg/ha) | CASOB herbicidal rating ([12]; rate 0.062 kg/ha) | CASOB herbicidal rating ([12]; rate 0.125 kg/ha) | Postemergence herbicidal rating ORYSAT ([13]; 0.008 kg/ha) | SETVI herbicidal rating ([14]; rate 0.016 kg/ha) | SETVI herbicidal rating ([14]; rate 0.032 kg/ha) | SETVI herbicidal rating ([14]; rate 0.062 kg/ha) | ORYSAT herbicidal rating ([16]; rate 0.016 kg/ha) | ORYSAT herbicidal rating ([16]; rate 0.032 kg/ha) | ORYSAT herbicidal rating ([16]; rate 0.062 kg/ha) | Postemergence herbicidal rating ECHCG ([17]; 0.008 kg/ha) | Postemergence herbicidal rating ECHCG ([17]; 0.016 kg/ha) | Postemergence herbicidal rating ECHCG ([17]; 0.032 kg/ha) | GALAP herbicidal rating ([19]; rate 0.016 kg/ha) | GALAP herbicidal rating ([19]; rate 0.032 kg/ha) | GALAP herbicidal rating ([19]; rate 0.062 kg/ha) | GLXMAW herbicidal rating ([20]; rate 0.016 kg/ha) | GLXMAW herbicidal rating ([20]; rate 0.032 kg/ha) | GLXMAW herbicidal rating ([20]; rate 0.062 kg/ha) | GLXMAW herbicidal rating ([20]; rate 0.125 kg/ha) | ZEAMX herbicidal rating ([21]; rate 0.016 kg/ha) | ZEAMX herbicidal rating ([21]; rate 0.032 kg/ha) | ZEAMX herbicidal rating ([21]; rate 0.062 kg/ha) | ZEAMX herbicidal rating ([21]; rate 0.125 kg/ha) | IPOHE herbicidal rating ([23]; rate 0.016 kg/ha) | IPOHE herbicidal rating ([23]; rate 0.032 kg/ha) | IPOHE herbicidal rating ([23]; rate 0.062 kg/ha) | TRZAWR herbicidal rating ([24]; rate 0.016 kg/ha) | TRZAWR herbicidal rating ([24]; rate 0.032 kg/ha) | TRZAWR herbicidal rating ([24]; rate 0.062 kg/ha) | TRZAWR herbicidal rating ([24]; rate 0.125 kg/ha)
7.0: Postemergence herbicidal rating ZEAMX ([5]; 0.008 kg/ha) | Postemergence herbicidal rating CHEAL ([6]; 0.062 kg/ha) | Postemergence herbicidal rating AMBEL ([7]; 0.062 kg/ha) | GALAP herbicidal rating ([19]; rate 0.125 kg/ha)
9.0: ABUTH herbicidal rating ([2]; rate 0.062 kg/ha) | ABUTH herbicidal rating ([2]; rate 0.125 kg/ha) | Postemergence herbicidal rating IPOHE ([3]; 0.008 kg/ha) | Postemergence herbicidal rating IPOHE ([3]; 0.032 kg/ha) | Postemergence herbicidal rating IPOHE ([3]; 0.062 kg/ha) | Postemergence herbicidal rating ABUTH ([11]; 0.008 kg/ha) | Postemergence herbicidal rating ABUTH ([11]; 0.016 kg/ha) | Postemergence herbicidal rating ABUTH ([11]; 0.032 kg/ha) | Postemergence herbicidal rating ABUTH ([11]; 0.062 kg/ha) | CHEAL herbicidal rating ([15]; rate 0.062 kg/ha) | CHEAL herbicidal rating ([15]; rate 0.125 kg/ha)
3.0: Postemergence herbicidal rating GALAP ([8]; 0.032 kg/ha) | Postemergence herbicidal rating GALAP ([8]; 0.062 kg/ha) | CHEAL herbicidal rating ([15]; rate 0.016 kg/ha) | CHEAL herbicidal rating ([15]; rate 0.032 kg/ha) | ORYSAT herbicidal rating ([16]; rate 0.125 kg/ha) | Postemergence herbicidal rating ECHCG ([17]; 0.062 kg/ha) | Postemergence herbicidal rating TRZAWR ([22]; 0.016 kg/ha) | IPOHE herbicidal rating ([23]; rate 0.125 kg/ha)
8.0: Postemergence herbicidal rating IPOHE ([3]; 0.016 kg/ha)
7.5: Postemergence herbicidal rating ZEAMX ([5]; 0.016 kg/ha) | Postemergence herbicidal rating ZEAMX ([5]; 0.032 kg/ha) | Postemergence herbicidal rating ZEAMX ([5]; 0.062 kg/ha)
6.0: Postemergence herbicidal rating AMBEL ([7]; 0.032 kg/ha)
5.0: ABUTH herbicidal rating ([2]; rate 0.032 kg/ha) | Postemergence herbicidal rating GLXMAW ([18]; 0.062 kg/ha)
4.0: Postemergence herbicidal rating ORYSAT ([13]; 0.062 kg/ha) | SETVI herbicidal rating ([14]; rate 0.125 kg/ha) | Postemergence herbicidal rating GLXMAW ([18]; 0.032 kg/ha)
2.5: Postemergence herbicidal rating TRZAWR ([22]; 0.008 kg/ha)
0.5: Postemergence herbicidal rating ORYSAT ([13]; 0.016 kg/ha)
1.0: Postemergence herbicidal rating ORYSAT ([13]; 0.032 kg/ha)
3.5: Postemergence herbicidal rating GLXMAW ([18]; 0.008 kg/ha) | Postemergence herbicidal rating GLXMAW ([18]; 0.016 kg/ha) | Postemergence herbicidal rating TRZAWR ([22]; 0.032 kg/ha)

Source: patent publication US20020111274A1, “1-alkyl-3-[1-(substituted phenyl) benzotriazol-6-yl] uracils” (BASF Aktiengesellschaft, priority 2000, published 2002)
